Data: patent publication US20130059793A1, “EGF RECEPTOR MIMICKING PEPTIDES” (BOARD OF REGENTS, THE UNIVERSITY OF TEXAS SYSTEM, priority 2010, published 2013)
Blank lines part the entries; values can stand above or below the substance they belong to. Square brackets hold non-standard residues; d marks the D form. Ends that are not written are not given here.

How the values were obtained:
[1] = system: EGFR ligands EGF, TGFα, and cetuximab; assay: Combinatorial CX7C phage library screening on EGFR ligands; consensus motifs (Table 1); type: binding; settings: EGFR ligand(s) on which the overlapping consensus motif was selected
Protocol: Phage peptide screening and binding assays were performed as described (Cardó-Vila et al., 2003). A random phage peptide library displaying the insert CX7C (where X is any amino acid and C is a cysteine residue) was used for the screening; phage input was 3×10^9 transducing units (TU). Antibodies, EGF, or TGF-α (R&D Systems) were coated onto microtiter wells as described (Smith and Scott, 1993). […] Wells were washed twice with PBS, blocked with PBS containing 3% BSA for 1 hr at room temperature (RT), and incubated with the phage library in 50 μl PBS containing 1.5% BSA. After 2 hr at RT, wells were washed ten times with PBS, and phage were recovered by bacterial infection as described (Smith and Scott, 1993; Giordano et al., 2001; Cardó-Vila et al., 2003). […] Purification of phage particles and sequencing of phage single-stranded (ss) DNA were performed as described (Arap et al., 1998; Pasqualini et al., 2001). Phage ssDNA from 96 individual clones from each of the second, third, and fourth rounds of selection were prepared, and inserts were sequenced.
Peptide-matching software (Mandava et al., 2004) was used to identify motifs resembling targeted ligands. To identify motifs resembling targeted ligands among the selected sequences, the inventors used a peptide-matching software program based on RELIC, an established bioinformatics server for combinatorial peptide analysis and identification of protein-ligand interaction sites (Mandava et al., 2004), designed and implemented through Perl 5.8.1. The program calculates similarity based on a pre-defined amino acid window size (defined empirically and experimentally) between an affinity-selected peptide sequence and the target protein sequence from N-terminus to C-terminus in one-residue shifts to fit the best alignment. The peptide-protein similarity scores for each amino acid residue were calculated based on an amino acid substitution matrix modified to adjust for rare residue representation. In this case, similarity scores were calculated based on a 5-residue window, with every pentamer motif in each selected peptide compared to each pentamer segment of the protein. Empirical similarity score thresholds were set with at least three identical residues plus one similar residue between the peptide and the protein segment.
A combinatorial approach was used to identify consensus protein-interacting sites within the EGFR. […] Serial enrichment in all selections was observed (FIGS. 1A-C). Bovine serum albumin (BSA), VEGF, and irrelevant IgG served as negative controls.
A comprehensive protein similarity analysis of selected peptides (n=384) was performed to identify sequences resembling the extracellular domain of the EGFR. Overlapping consensus motifs selected in all three EGFR ligands were identified, mapped, and consolidated within the five dominant candidate regions (Cys227-Cys240, Cys283-Asp290, Cys486-Cys491, Cys547-Cys567, Cys604-Lys618; not accounting for the signal peptide, as indicated) within the primary structure of the receptor (FIG. 2A, yellow highlights).

cetuximab = assay: Binding of synthetic peptides to cetuximab (ELISA-based, FIG. 3A, FIG. 4B); settings: FIG. 4B (peptides plated at 10 μg/ml)
Text: (§1) BSA served as an additional negative control, and the EGFR, as a positive control. […] Insertless phage served as a negative control. […] Bars represent mean±SEM.
(§2) A representative experiment is depicted. […] Bars represent mean±SEM. […] (FIG. 4C) Effect of the synthetic peptides on HN5 tumor cells. […] Viability in the absence of peptide was set to 100%. […] Bars represent mean±SEM. […] Receptors were immunoprecipitated with antibodies against phosphorylated (p) pEGFR and were immunoblotted with anti-phosphotyrosine IgG.
(§3) The EGFR served as an immobilized positive control, and BSA or control peptides (CVAAC) served as immobilized negative controls.

GEO tumor cells = assay: Inhibition by peptide of the cetuximab-dependent inhibition of proliferation, GEO; type: cell-based, human; settings: with cetuximab
Protocol: (§4) Tumor cell lines HN5, UMSCC 10A, GEO and EF43.fgf-4 were culture in standard conditions. Viability was assessed by MTT assays (Sigma) as described (Cardó-Vila et al., 2003). […] Samples were read at 570 nm.

[2] = Nuclear magnetic resonance (NMR)-spectroscopy interactions; type: binding
[3] = system: polyclonal anti-CVRAC antibodies; assay: ELISA recognition of peptides by polyclonal anti-CVRAC antibodies (FIG. 4B); type: binding, rabbit
Text: as §2
Rabbits were immunized with KLH-conjugated CVRAC and a purified antibody was obtained. […] The capacity of rabbit IgG against CVRAC to recognize CVRAC, D(CARVC), and EGFR was measured by ELISA.
as §3

HN5 tumor cells [4] = assay: Inhibition by peptide of the cetuximab-dependent inhibition of proliferation, HN5; type: cell-based, human; settings: HN5, with cetuximab; 60 μM or 180 μM CVRAC, FIG. 4A
Protocol: as §2, §4

[5] = system: EF43.fgf-4-derived tumors; assay: Treatment of tumor-bearing mice with peptides and peptidomimetics, tumor volume; type: in vivo; settings: Balb/c mice, EF43.fgf-4 tumors, 750 μg/mouse/dose
Text: FIGS. 5A-B: CVRAC-targeted phage homes to tumor. (FIG. 5A) Targeting tumors versus control organs. […] An anti-phage antibody was used for staining H&E staining, with the corresponding fluorescence-based immunostaining, are shown in tumors (FIG. 5A). Tumor-bearing mice received CVRAC phage, CVAAC phage, or insertless control phage as indicated. Cohorts of tumor-bearing mice (n=5 mice/group) were used. A representative experiment is shown. Scale bar, 100 μm. (FIG. 5B) Treatment of tumor-bearing mice with peptides and peptidomimetics. Balb/c mice bearing EF43.fgf-4-derived tumors were divided into size-matched cohorts (n=7 mice/group); individual tumor volumes are represented before (black circles) and after (white circles). Peptides and peptidomimetics were administered at 750 μg/mouse/dose for 5 days. Shown are mean tumor volumes±SEM.
Selective phage homing to tumors was evaluated as described (Hajitou et al., 2006; Arap et al., 1998). […] Each cohort of mice (n=3 per experiment) with size-matched tumors received a set of test and control phage clones. After 6 h, tumor-bearing mice were perfused through the heart with 20 ml of PBS containing 4% paraformaldehyde (PFA). […] For experimental therapy, Balb/c mice bearing EF43.fgf-4-derived tumors were established, and tumor volumes were determined as described (Arap et al., 1998; Hajitou et al., 2006; Ciardiello et al., 1999). […]

[6] = system: binding of cetuximab to the EGFR; assay: ELISA inhibition of binding of cetuximab to the EGFR by synthetic peptides (FIG. 3B, FIGS. 7A-C); settings: for inhibition of binding of cetuximab to the EGFR: ELISA, FIG. 3B; for initial functional screen of consensus motif panel (n=15) with cetuximab: FIGS. 7A-C
Text: as §1
Similar methodologies have been applied to therapeutic (Binder et al., 2006; Binder et al., 2007; Riemer et al., 2005) or diagnostic (Jaalouk et al., 2007) antibodies in a strategy that could reveal mechanisms of action (Binder et al., 2007), identify biological reagents for immunization (Riemer et al., 2005), or discover unrecognized antigens (Jaalouk et al., 2007).

HN5 tumor cells [7] = assay: Cell viability/proliferation, MTT assay, HN5; type: cell-based, human; design: cell proliferation / viability: dose or concentration left out as unconfirmed; settings: HN5, MTT, 120 h, increasing concentrations, FIG. 4C
Protocol: as §2, §4
Tumor cell lines HN5, UMSCC 10A, GEO and EF43.fgf-4 were maintained in high-glucose DMEM, supplemented with 10% heat-inactivated fetal bovine serum, 20 mM HEPES (pH 7.4), 100 IU/ml penicillin, 100 μg/ml streptomycin, and 4 mM glutamine at 5% CO2 at 37° C. EF43.fgf-4 were grown in G418 as described (Hajitou et al., 2006).

EGFR = assay: EGF-induced EGFR autophosphorylation (immunoprecipitation, anti-phosphotyrosine blot); type: cell-based, human; settings: HN5 tumor cells, EGF 15 min, FIG. 4E
Text: as §2

Substance: CRKFRDEATC [synthetic EGFR-mimicking peptide]
Selected on [1]: All EGFR ligands

Substance: CPAGVM [synthetic EGFR-mimicking peptide]
Selected on [1]: Cetuximab

binding of synthetic peptide to cetuximab (cetuximab): specifically bind to cetuximab
inhibition of binding of cetuximab to the EGFR [6]: Concentration-dependent inhibition
initial functional screen of consensus motif panel (n=15) with cetuximab [6]: not significantly different
Substance: CVRAC [synthetic cyclic peptide, EGFR residues 283-287]
inhibition of the antibody-dependent inhibition of proliferation (GEO tumor cells): concentration-dependent inhibition
interactions by NMR-spectroscopy [2]: Low-affinity interactions (micromolar range)
recognition by polyclonal anti-CVRAC antibodies [3]: recognized
inhibition of the antibody-dependent inhibition of proliferation (HN5 tumor cells [4]): concentration-dependent inhibition
therapeutic efficacy, tumor growth [5]: showed therapeutic efficacy in vivo
cell proliferation / viability (HN5 tumor cells [7]): proliferated much less

Substance: CLPQAMNIT [synthetic EGFR-mimicking peptide]
Selected on [1]: Cetuximab

Substance: AQQCSGRCRGKSPSD [synthetic EGFR-mimicking peptide]
Selected on [1]: EGF & TGFα

Substance: CTGPGLEGCPTNGPK [synthetic EGFR-mimicking peptide]
Selected on [1]: All EGFR ligands

Substance: CQKCDPSC
Selected on [1]: Cetuximab & TGFα

binding of synthetic peptide to cetuximab (cetuximab): specifically bind to cetuximab
inhibition of binding of cetuximab to the EGFR [6]: Concentration-dependent inhibition
Substance: CVRACGAD (not fully specified (bridges); also: cyclic, ring type and places not given here) [synthetic cyclic peptide, EGFR residues 283-290]
Selected on [1]: All EGFR ligands
initial functional screen of consensus motif panel (n=15) with cetuximab [6]: best concentration-dependent ligand peptide

Substance: PNGSCW [synthetic EGFR-mimicking peptide]
Selected on [1]: Cetuximab

Substance: IQCAHYIDGPHC [synthetic EGFR-mimicking peptide]
Selected on [1]: All EGFR ligands

Substance: D(CAAVC) ([dC][dA][dA][dV][dC]; cysteine pairing not given here; also: peptidomimetic) [negative control peptidomimetic with a mutation corresponding to EGFR Arg285Ala, reference compound]
EGF-induced tyrosine phosphorylation of the EGFR (EGFR): not

Substance: CSPEGC (also: cyclic, ring type not given here) [synthetic EGFR-mimicking peptide]
Selected on [1]: All EGFR ligands

Substance: CTGRGPDNCIQ [synthetic EGFR-mimicking peptide]
Selected on [1]: All EGFR ligands

Substance: IIRGRTK [synthetic EGFR-mimicking peptide]
Selected on [1]: EGF & TGFα

Substance: THTPPLDPQEL [synthetic EGFR-mimicking peptide]
Selected on [1]: EGF & TGFα

Substance: CKDTC [synthetic EGFR-mimicking peptide]
Selected on [1]: All EGFR ligands

Substance: QRNYDLSFL [synthetic EGFR-mimicking peptide]
Selected on [1]: EGF & TGFα
